Measured values taken from publication PMC6934184, “Selective DNA-PKcs inhibition extends the therapeutic index of localized radiotherapy and chemotherapy” (The Journal of Clinical Investigation, 2019).

Biological target: T1, KIT T670E (Homo sapiens, UniProt P10721, T670E)
T1 construct: purchased Thermo Fisher Scientific (Life Technologies) SelectScreen
Experiment: SelectScreen LanthaScreen
Format: binding
Settings: read-out: % displacement
Summary of the method: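 Percent values come from Thermo SelectScreen profiling of NU5455, combining activity and binding assays. CSF1R was run in Z'LYTE format at Km app ATP, and CAMK1 in Adapta format with ATP listed at 10.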

T1 sequence (P10721 26-976 T670E): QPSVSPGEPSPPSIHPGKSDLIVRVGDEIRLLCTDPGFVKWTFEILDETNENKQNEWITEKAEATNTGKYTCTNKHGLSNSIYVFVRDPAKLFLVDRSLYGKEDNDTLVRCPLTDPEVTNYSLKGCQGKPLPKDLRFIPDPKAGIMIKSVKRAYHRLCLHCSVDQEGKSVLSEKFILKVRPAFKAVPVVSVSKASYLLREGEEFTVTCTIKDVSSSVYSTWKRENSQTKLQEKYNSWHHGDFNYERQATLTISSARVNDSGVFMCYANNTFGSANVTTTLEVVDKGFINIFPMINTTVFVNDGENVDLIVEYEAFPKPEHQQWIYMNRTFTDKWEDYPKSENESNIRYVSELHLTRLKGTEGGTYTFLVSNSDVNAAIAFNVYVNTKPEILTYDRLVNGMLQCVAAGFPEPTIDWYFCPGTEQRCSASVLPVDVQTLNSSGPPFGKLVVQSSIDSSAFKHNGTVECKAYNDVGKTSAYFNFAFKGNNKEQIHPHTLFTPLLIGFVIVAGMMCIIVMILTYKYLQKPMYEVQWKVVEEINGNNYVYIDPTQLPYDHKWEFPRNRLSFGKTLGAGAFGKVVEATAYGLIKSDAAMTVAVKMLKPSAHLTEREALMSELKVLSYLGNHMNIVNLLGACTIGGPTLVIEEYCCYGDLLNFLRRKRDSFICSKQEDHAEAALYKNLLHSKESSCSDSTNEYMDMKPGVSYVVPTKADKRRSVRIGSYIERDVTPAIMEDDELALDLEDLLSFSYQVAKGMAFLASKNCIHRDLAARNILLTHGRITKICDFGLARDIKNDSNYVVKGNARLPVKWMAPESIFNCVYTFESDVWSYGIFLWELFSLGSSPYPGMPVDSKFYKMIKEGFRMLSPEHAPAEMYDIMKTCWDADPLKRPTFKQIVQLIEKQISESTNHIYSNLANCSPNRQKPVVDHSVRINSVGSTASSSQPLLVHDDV

## CN(C(=O)CN1CCOCC1)c1ccc2sc3c(-c4cccc5c(=O)cc(N6CC7CCC(C6)O7)oc45)cccc3c2c1 [NU5455]
  inhibition at 1 µM: -2.8%
